Experiments:
[1] = test system: AsPc1 pancreatic cancer cells; assay: Effect of tocotrienols on pancreatic cancer proliferation (MTT), 72 hours; assay type: cell-based, human; details: AsPc1, 40 to 100 μM, vs vehicle
Excerpt: (§1) FIGS. 11A and B are graphs showing the effect of tocotrienols on pancreatic cancer proliferation (MTT). […] Points, means; bars, SE (n=3).

[2] = test system: MiaPaCa2 pancreatic cancer cells; assay: as above; assay type: cell-based, human; details: MiaPaCa2, 40 to 100 μM, vs vehicle
Excerpt: as §1

[3] = test system: SW1990 pancreatic cancer cells; assay: MTS assay of SW1990 cultures, single 50 μM dose; assay type: cell-based, human; details: SW1990, 50 μM
Procedure: SW1990 pancreatic cancer cells […] were cultured in complete DMEM media containing 10% fetal bovine serum (FBS) and 1% penicillin-streptomycin, and 1% L-glutamine. BxPc-3 pancreatic cancer cells were cultured in complete RPMI media containing 10% fetal bovine serum (FBS), and 1% penicillin-streptomycin, 1% HEPES buffer, 1% sodium pyruvate and 1% L-glutamine. HPDE6-C7 cells were cultured in serum-free keratinocyte SFM media. All cells were maintained at 37° C. in a humidified incubator with 5% CO2. The cells were treated with a single 50 μM dose of vehicle (ethanol extracted olive oil), T3 alpha (alpha tocotrienol), T3 beta (beta tocotrienol), T3 gamma (gamma tocotrienol), T3 delta (delta tocotrienol), T alpha (alpha tocopherol), T beta (beta tocopherol), TS (tocopherol succinate), GG (geranylgeraniol), SA (succinic acid). A control culture (i.e., only vehicle with no treatment) was grown alongside the treatments for comparison. Cell viability was measured using MTS assay at preselect times of 24, 48, or 72 hours after treatment.

[4] = test system: MiaPaCa2 pancreatic cancer cells; assay: Malignant transformation (Soft Agar) colony formation; assay type: cell-based, human; details: MiaPaCa2, 50 μM, vs vehicle
Procedure: FIG. 20 is a graph showing the effect of tocotrienols on pancreatic cancer malignant transformation (Soft Agar). […] Bars, SE (n=3). *p<0.001 vs. vehicle. **p<0.02 vs. vehicle. ***p<0.05 vs. vehicle. T=tocopherol, T3=tocotrienol.
MiaPaCa2 cells (3×10^3) were cultured as described in the Examples above, in 96-well plates and treated with 50 μM of different tocopherol or tocotrienol.

[5] = test system: human pancreatic ductal epithelial cells transformed with oncogenic K-ras (HPDE-K-ras); assay: Proliferation (MTT) of K-ras transformed ductal epithelial cells; assay type: cell-based; details: 72 hours
Procedure: FIGS. 36A and B are graphs showing the effect of tocotrienols on Human Pancreatic Ductal Epithelial Kras Transformed cells (MTT). (A) Tocotrienols (10-100 μM) had no effect on the proliferation of normal immortalized human pancreatic ductal epithelial cells at 72 hours. […] Points, means; bars, SE (n=3). *p<0.001 vs. vehicle. # p<0.02 vs. vehicle
The Ras effector pathways Raf-MEK-ERK and PI3 kinase-AKT are important for cell proliferation and survival, respectively. Pancreatic cancer cell lines (MIA PaCa2, SW1990, BXPC3) and HPDE 6C7 cells were treated with 8-tocotrienol (20 μM) and cell lysates were collected and prepared at progressive time intervals as described above. Proteins from lysates were run by SDS PAGE and immunoblotted with the following antibodies: Ras, p-cRaf (ser 338), p-MEK1/2, MEK1/2, pERK 44/42, ERK 44/42 (Cell Signaling) and c-Raf (BD Transduction Laboratories). […] The MIA PaCa2 and SW1990 cells were then tested for AKT inhibition. The cells were treated with δ-tocotrienol (20 μM) for 24 and 48 hours and cell lysates were run by SDS-PAGE and immunoblotted for p-AKT and AKT (Cell Signaling). […] Taken together, the inhibition of downstream effectors of oncogenic Ras signaling by δ-tocotrienol without an effect on Ras protein levels may indicate a negative regulatory role of 8-tocotrienol on the function of oncogenic Ras. The pancreatic ductal epithelial cell proliferative inhibition by δ-tocotrienol was tested to see if it occurs through blocking aberrant signal transduction cascades. Immortalized human pancreatic ductal epithelial cells (HPDE) and human pancreatic ductal epithelial cells that were transformed by stable transfection of a mutated K-ras oncogene (HPDE-K-ras) were used to test the. effect of tocotrienols on the proliferation of HPDE and HPDE-K-ras.

[6] = test system: MiaPaCa2 pancreatic cancer cells; assay: Apoptosis by cell death ELISA, 72 hours; assay type: cell-based, human; details: MiaPaCa2, 50 μM
Procedure: (§2) FIGS. 38A and B are graphs showing the effect of tocotrienols on pancreatic cancer survival (Trypan Blue and Cell death ELISA). […] T3=tocotrienol, T=tocopherol, vit E=vitamin E succinate, gem=gemcitabine, 5-FU=fluorouracil.
(§3) MIA PaCa2 cells (3×10^3) were plated in 96 well plates and treated the following day with different compositions of tocoperhol, tocotrienol, gemcitabine, or fluorouracil. The cells were harvested 72 hours later and tested using trypan blue assay and cell death ELISA.

[7] = test system: MiaPaCa2 pancreatic cancer cells; assay: Cell death by trypan blue assay, 72 hours; assay type: cell-based, human; details: MiaPaCa2, 50 μM
Procedure: as §2, §3

BXPC3 cells = assay: Proliferation by MTT, increasing concentrations of δ-tocotrienol; assay type: cell-based, human; details: BXPC3, at 24 hours; read-out: IC50 (inhibition of proliferation, MTT)
Procedure: FIG. 24 is a graph wherein BXPC3 pancreatic cancer cells (3×10^3) were plated in 96 well plates and treated the following day with δ-tocotrienol. Proliferation was assessed by MTT at 24 hour intervals. […] HPDE 6C7 cells were also treated with increasing concentrations of δ-tocotrienol for 24 hours.
MIA PaCa2, SW1990, BXPC3, and HPDE 6C7 cells (3×10^3) were cultured as described in the Examples above, in 96-well plates and treated the following day with increasing concentrations of δ-tocotrienol.

Row | Compound | proliferation (MTT) [1] | proliferation (MTT) [2] | rel amnt (relative value set to the control) ([3]; 24 hours) | MTS assay result, run 1 ([3]; 24 hours) | MTS assay result, run 2 ([3]; 24 hours) | MTS assay result, run 3 ([3]; 24 hours) | MTS assay result, run 4 ([3]; 24 hours) | MTS assay result, run 5 ([3]; 24 hours) | MTS assay result, run 6 ([3]; 24 hours) | MTS assay result, run 7 ([3]; 24 hours) | MTS assay result, run 8 ([3]; 24 hours) | MTS assay result, run 9 ([3]; 24 hours) | rel amnt (relative value set to the control) ([3]; 48 hours) | MTS assay result, run 1 ([3]; 48 hours) | MTS assay result, run 2 ([3]; 48 hours) | MTS assay result, run 3 ([3]; 48 hours) | MTS assay result, run 4 ([3]; 48 hours) | MTS assay result, run 5 ([3]; 48 hours) | MTS assay result, run 6 ([3]; 48 hours) | MTS assay result, run 7 ([3]; 48 hours) | also measured
1 | alpha tocotrienol [T3 alpha] | no effect | no effect | 121 | 0.168 | 0.183 | 0.175 | 0.148 | 0.195 | 0.176 | 0.206 | 0.172 | 0.178 | 116 | 0.168 | 0.162 | 0.16 | 0.146 | 0.175 | 0.205 | 0.2 | MTS assay result, run 8 ([3]; 48 hours): 0.187; MTS assay result, run 9 ([3]; 48 hours): 0.175; rel amnt (relative value set to the control) ([3]; 72 hours): 61; MTS assay result, run 1 ([3]; 72 hours): 0.279; MTS assay result, run 2 ([3]; 72 hours): 0.282; MTS assay result, run 3 ([3]; 72 hours): 0.29; MTS assay result, run 4 ([3]; 72 hours): 0.238; MTS assay result, run 5 ([3]; 72 hours): 0.302; MTS assay result, run 6 ([3]; 72 hours): 0.279; MTS assay result, run 7 ([3]; 72 hours): 0.25; MTS assay result, run 8 ([3]; 72 hours): 0.254; MTS assay result, run 9 ([3]; 72 hours): 0.273; malignant transformation (Soft Agar) [4]: no effect; proliferation (MTT) [5]: no effect; apoptosis (Cell death ELISA) [6]: no effect; cell death (Trypan Blue) [7]: no effect
2 | CC(C)=CCC/C(C)=C/CC/C(C)=C/CC[C@]1(C)CCc2cc(O)cc(C)c2O1 [T3 delta, delta tocotrienol] | significantly decreased the proliferation | significantly decreased the proliferation | 97 | 0.158 | 0.149 | 0.157 | 0.126 | 0.147 | 0.135 | 0.13 | 0.142 | 0.143 | 83 | 0.131 | 0.133 | 0.12 | 0.12 | 0.126 | 0.119 | 0.12 | MTS assay result, run 8 ([3]; 48 hours): 0.142; MTS assay result, run 9 ([3]; 48 hours): 0.127; rel amnt (relative value set to the control) ([3]; 72 hours): 132; MTS assay result, run 1 ([3]; 72 hours): 0.667; MTS assay result, run 2 ([3]; 72 hours): 0.615; MTS assay result, run 3 ([3]; 72 hours): 0.61; MTS assay result, run 4 ([3]; 72 hours): 0.587; MTS assay result, run 5 ([3]; 72 hours): 0.582; MTS assay result, run 6 ([3]; 72 hours): 0.491; MTS assay result, run 7 ([3]; 72 hours): 0.52; MTS assay result, run 8 ([3]; 72 hours): 0.604; MTS assay result, run 9 ([3]; 72 hours): 0.584; IC50 (BXPC3 cells): 20 to 25 µM; malignant transformation (Soft Agar) [4]: significantly inhibited the malignant transformation; proliferation (MTT) [5]: significantly inhibited; apoptosis (Cell death ELISA) [6]: significantly induced; cell death (Trypan Blue) [7]: significantly induced the death
